Consider three molecules from US9061981B2, “Diphenyl substituted cyclohexane derivatives, useful as modulators of the estrogen receptors beta” (Acadia Pharmaceuticals Inc., priority 2011, dated 2015).

Data set [1] in a line: Unidirectional permeability across MatTek EpiOral buccal tissue. Format: in vitro ADME, human. As for the experimental part: EpiOral→tissues plated in 24-well plates were obtained from MatTek Corporation (Ashland, Mass., USA). The assay buffer was Dulbeccos' Phosphate Buffered Saline (DPBS) without Ca & Mg chloride, pH 7.4. Each test compound was co-dosed with the two control compounds. Targeting dosing concentrations were 10 μM for each test compound and 100 μM for the two control compounds. Prior to the permeability assay onset, the tissues were preequilibrated in a pre-warmed EpiOral assay medium for one hour at 37° C. in a 5% CO2 incubator. The EpiOral assay medium was aspirated after the pre-equilibration, and the tissues were washed twice with the DPBS buffer. The receiver chambers were filled with 0.75 mL of the DPBS buffer, while the donor chambers received 0.4 mL of the dosing solutions. The assay plates were placed at 37° C. in a 5% CO2 incubator. The receiver samples (200 μL) were collected at 30, 60, and 120 minutes, and replaced with an equal volume of fresh pre-warmed receiver buffer (except for the last time point of 120 minutes). The donor sides were sampled at 0 and 120 minutes. The test compounds were then analyzed using LC-MS/MS.

Another data set has as its target T1, ERα (Homo sapiens, UniProt P03372).
T1 sequence (P03372 1-595): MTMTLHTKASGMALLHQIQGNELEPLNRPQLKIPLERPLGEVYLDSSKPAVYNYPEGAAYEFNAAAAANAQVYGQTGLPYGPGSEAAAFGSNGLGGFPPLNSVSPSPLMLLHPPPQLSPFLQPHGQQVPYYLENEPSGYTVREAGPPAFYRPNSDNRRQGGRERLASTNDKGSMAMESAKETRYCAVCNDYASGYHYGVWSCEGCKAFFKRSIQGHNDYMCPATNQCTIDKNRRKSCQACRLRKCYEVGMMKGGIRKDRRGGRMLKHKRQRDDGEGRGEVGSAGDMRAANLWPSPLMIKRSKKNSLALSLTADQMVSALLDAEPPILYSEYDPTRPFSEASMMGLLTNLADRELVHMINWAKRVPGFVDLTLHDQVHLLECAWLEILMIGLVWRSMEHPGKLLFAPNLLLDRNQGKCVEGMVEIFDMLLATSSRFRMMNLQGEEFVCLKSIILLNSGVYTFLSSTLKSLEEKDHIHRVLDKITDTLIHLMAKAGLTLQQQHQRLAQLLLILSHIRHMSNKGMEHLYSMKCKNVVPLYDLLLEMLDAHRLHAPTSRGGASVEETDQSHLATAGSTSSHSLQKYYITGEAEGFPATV
As to the kind of experiment: R-SAT functional assay, ERα. The format is cell-based. Also on record: expressed in transfected cells; host or cells: NIH-3T3 fibroblasts, transient transfection. To be noted: NIH-3T3 cells; for EC50: na = not active, read-out: R-SAT Erα pEC50 (converted). The text has this:
(§1) R-SAT® (Receptor Selection and Amplification Technology) is a cell-based functional assay that allows one to monitor receptor-dependent proliferative responses and has been described elsewhere. […] This process is achieved by partial cellular transformation via loss of contact inhibition and growth factor dependency. Monitoring is achieved by transfecting the cells with a β-galactosidase reporter gene vector whose expression is under a constitutively active promoter. Briefly, NIH-3T3 fibroblasts were plated overnight in 96-wells plates in DMEM 10% calf serum (Hyclone) and grown to 60-70% confluency prior to transfection. Transient transfections were performed using Polyfect (Qiagen) according to manufacturer's instructions. Typically a transfection mix would consist of the receptor and the β-galactosidase expression vectors. Sixteen hours post-transfection, cells were incubated with different doses of ligand in DMEM containing 30% Ultraculture (Hyclone) and 0.4% calf serum (Hyclone) to generate a dose response curve. […] Plates were read using a microplate reader at 420 nm. Data from R-SAT® assays were fit to the equation: r=A+B(x/(x+c)), where A=minimum response, B=maximum response minus minimum response, c=EC50, r=response, and x=concentration of ligand. Curves were generated using the curve fitting softwares Excel Fit and GraphPad Prism (San Diego, Calif.). Luciferase Reporter Gene Assay

A further data set deals with CFA-treated animals. The data set can be described thus: Complete Freund's Adjuvant (CFA) model of chronic inflammation. Format: in vivo, Rats. As to conditions: 10 mg/kg sc, 24 hrs after drug administration. The protocol:
Rats were treated with Complete Freund's Adjuvant (CFA). After 4 days (upon reaching stable inflammation), CFA-treated animals were treated with 10 mg/kg subcutaneously (sc) of Compound 8, incomplete Freund's Adjuvant or vehicle, respectively. Responses were measured 24 hrs after drug administration. […] Latencies, expressed in seconds (sec), were defined as the time needed for the animal to remove the treated paw from the hot surface.

The subject of data set [2] is L5/L6 spinal nerve ligation. The data set can be described thus: Spinal nerve ligation model of neuropathic pain. Format: in vivo, male Sprague-Dawley rats. As to conditions: s.c. As for the experimental part: Spinal nerve ligation of the L5/L6 nerve was done as originally described by Kim and Chung, using male Sprague-Dawley rats. Allodynia was assessed by applying a light tactile stimulus (Von Frey hairs) to the plantar surface of the surgical paw until the 50% threshold is established. A positive response is recorded if the paw is sharply withdrawn. Eight VonFrey hairs were used (3.61, 3.84, 4.08, 4.31, 4.56, 4.74, 4.93 and 5.18).

Data set [3] can be described thus: Metabolic stability in liver microsomes, rat. The format is in vitro ADME. To be noted: low value = metabolically stable. The protocol: (§2) Also the metabolic stability in liver microsomes was tested for some compounds.
(In general: Microsomes from liver hold many membrane-bound enzymes, among them those of drug oxidation.)

The target of data set [4] is T2, ERβ (Homo sapiens, UniProt Q92731). The data set can be described thus: R-SAT functional assay, ERβ. The format is cell-based. Also on record: expressed in transfected cells; host or cells: transient transfection. As to conditions: NIH3T3, read-out: R-SAT Erβ % Eff.
T2 sequence (Q92731 whole entry, species assumed): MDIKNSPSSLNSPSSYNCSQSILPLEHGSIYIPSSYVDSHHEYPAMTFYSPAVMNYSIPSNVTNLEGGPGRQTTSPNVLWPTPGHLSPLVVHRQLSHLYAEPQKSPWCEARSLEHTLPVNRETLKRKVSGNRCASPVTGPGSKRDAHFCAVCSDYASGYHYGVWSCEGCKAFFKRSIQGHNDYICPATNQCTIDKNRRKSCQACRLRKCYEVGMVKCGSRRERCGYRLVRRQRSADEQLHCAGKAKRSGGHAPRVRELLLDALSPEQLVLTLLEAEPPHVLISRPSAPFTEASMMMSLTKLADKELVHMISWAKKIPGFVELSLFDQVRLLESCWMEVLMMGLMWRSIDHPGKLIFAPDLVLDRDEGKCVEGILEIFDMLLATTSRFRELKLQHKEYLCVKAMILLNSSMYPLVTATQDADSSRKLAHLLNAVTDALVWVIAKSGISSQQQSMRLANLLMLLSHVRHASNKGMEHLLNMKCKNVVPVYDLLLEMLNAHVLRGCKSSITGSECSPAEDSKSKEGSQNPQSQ
Source text: as §1

Data set [5] in a line: Metabolic stability in liver microsomes, human. To be noted: low value = metabolically stable. The format is in vitro ADME. As for the experimental part:
as §2

In data set [6] the target is T2, ERβ. The data set can be described thus: R-SAT functional assay, ERβ. The format is cell-based. Further details: expressed in transfected cells; host or cells: transient transfection.

A word on the microsomal CLint: it is the capacity of the preparation to metabolise the compound, expressed as a volume cleared per time. `Oc1ccc(C2(c3ccccc3F)CCC(F)(F)CC2)cc1` [Compound 8, 4-(4,4-Difluoro-1-(2-fluorophenyl)cyclohexyl)phenol]: in data set [1], the “permeability classification in MatTek EpiOral buccal tissue” value (from here on “permeability classification”) is recorded as “highly permeable”. Besides, at ERα, the “R-SAT Erα % Eff” value is 62% and the EC50 is 1000 nM. In the data set on CFA-treated animals, the “edema in the treated paw (inflammation)” value was “inhibits hyperalgesia and inflammation”; the “thermal hyperalgesia, 52° C. hot plate latency” value is listed as “inhibits hyperalgesia”. Also, the “allodynia (Von Frey 50% threshold)” value in data set [2] is “reverses allodynia”. In data set [3], this molecule returned a microsomal CLint of 150 µL/min/mg. Besides, the Emax on ERβ [4] is 69%. Besides, in data set [5], the microsomal CLint came to 11 µL/min/mg. In addition, the EC50 on ERβ [6] was 1.26 nM.
As to `Oc1ccc(C2(c3cccc(F)c3Cl)CCCCC2)cc1` [Compound 623], in data set [1], the “permeability classification” value was “low permeability”. Also, on ERα, the “R-SAT Erα % Eff” value was 45% and the EC50 is 398 nM. The Emax at ERβ [4] turned out to be 89%. The EC50 on ERβ [6] is 6.31 nM.
Regarding `Oc1ccc(C2(c3ccccc3Cl)CCCCC2)cc1F` [Compound 957], in data set [1], the “permeability classification” value is reported as “low permeability”. For the same molecule, the “R-SAT Erα % Eff” value at ERα is on record as 58%. In addition, the EC50 is 631 nM on ERα and 1.58 nM on ERβ [6]. Besides, the microsomal CLint in data set [3] stood at 450 µL/min/mg; in data set [5], 20 µL/min/mg. The Emax at ERβ [4] stood at 94%.
